Laboratory results published in ChEMBL document CHEMBL1201862, “PubChem BioAssay data set” (2004).
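Cells were grown in 96-well plates and exposed to each compound for 48 hours at five concentrations; endpoints were interpolated linearly between bracketing concentrations, or set to the highest concentration if not reached. Abbreviation: GI50, concentration required for 50% inhibition of growth.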 Activity calls are given as the source filed them. Rule as the data show it: active = GI50 up to about 1.1 µM and inactive = higher.

Assays:
Assay in all cases: NCI anticancer screen, dose series, 48 h
A549 = test system: A549
CCRF-CEM = test system: CCRF-CEM
COLO 205 = test system: COLO 205
HCT-116 = test system: HCT-116
HOP-62 = test system: HOP-62
HOP-92 = test system: HOP-92
LXFL 529 = test system: LXFL 529
NCI-H23 = test system: NCI-H23
OVCAR-3 = test system: OVCAR-3
RPMI-8226 = test system: RPMI-8226
RXF 393 = test system: RXF 393
SF-295 = test system: SF-295
SK-MEL-28 = test system: SK-MEL-28
SK-MEL-2 = test system: SK-MEL-2
SK-MEL-5 = test system: SK-MEL-5
U-251 = test system: U-251
HCC 2998 = test system: HCC 2998
BT-549 = test system: BT-549
MCF7 = test system: MCF7
NCI/ADR-RES = test system: NCI/ADR-RES

Measured: GI50

C[N+]1=c2c3cccc4cccc(c(=O)n2CC1)c43
inactive: A549 22.4 µM | CCRF-CEM 11.6 µM | COLO 205 10.1 µM | HCT-116 4.68 µM | HOP-62 22 µM | HOP-92 24.7 µM | LXFL 529 13.9 µM | NCI-H23 17.6 µM | OVCAR-3 25.7 µM | RPMI-8226 23.9 µM | RXF 393 11.4 µM | SF-295 21.3 µM | SK-MEL-28 15.8 µM | SK-MEL-2 19.6 µM | SK-MEL-5 18.2 µM | U-251 28.6 µM

COc1cc2c3c(c1OC)-c1c(ccc4c1OCO4)CC3(C#N)N(C(=O)c1ccccc1)CC2 (stereo not given)
inactive: A549 64.3 µM | CCRF-CEM 51.3 µM | COLO 205 > 100 µM | HCT-116 42.2 µM | HOP-62 38.5 µM | HOP-92 26.4 µM | LXFL 529 73.8 µM | NCI-H23 52.8 µM | OVCAR-3 45.3 µM | RPMI-8226 8.91 µM | RXF 393 36.1 µM | SF-295 41.4 µM | SK-MEL-5 > 100 µM | U-251 36.4 µM

CC(C(=O)c1ccc(Cl)cc1)/C(=N/NC(=O)NN)C(=O)Nc1cccc(C(F)(F)F)c1 (stereo not given)
inactive: A549 > 100 µM | CCRF-CEM > 100 µM | COLO 205 > 100 µM | HCC 2998 > 100 µM | HCT-116 > 100 µM | LXFL 529 > 100 µM | NCI-H23 > 100 µM | OVCAR-3 > 100 µM | RPMI-8226 > 100 µM | RXF 393 22.8 µM | SF-295 > 100 µM | SK-MEL-28 > 100 µM | SK-MEL-2 > 100 µM | SK-MEL-5 > 100 µM | U-251 > 100 µM

COc1ccc(C2C(Cl)C(=O)N2NC(=O)Cc2ccccc2)cc1 (stereo not given)
inactive: A549 > 100 µM | CCRF-CEM > 100 µM | COLO 205 > 100 µM | HCC 2998 > 100 µM | HCT-116 > 100 µM | HOP-62 > 100 µM | LXFL 529 > 100 µM | NCI-H23 > 100 µM | OVCAR-3 > 100 µM | RPMI-8226 > 100 µM | RXF 393 > 100 µM | SF-295 > 100 µM | SK-MEL-28 > 100 µM | SK-MEL-2 > 100 µM | SK-MEL-5 > 100 µM | U-251 > 100 µM

O=C(/C=C/c1cccc([N+](=O)[O-])c1)c1ccc([N+](=O)[O-])cc1
inactive: A549 > 100 µM | CCRF-CEM > 100 µM | COLO 205 > 100 µM | HCC 2998 > 100 µM | HCT-116 > 100 µM | HOP-62 > 100 µM | LXFL 529 > 100 µM | NCI-H23 > 100 µM | OVCAR-3 > 100 µM | RXF 393 > 100 µM | SF-295 > 100 µM | SK-MEL-28 > 100 µM | SK-MEL-2 > 100 µM | SK-MEL-5 > 100 µM | U-251 > 100 µM

N#Cc1ccc(C2OCC3CC=CCC3CO2)cc1 (stereo not given)
inactive: A549 70 µM | CCRF-CEM 44.7 µM | COLO 205 80.9 µM | HCC 2998 59.4 µM | HCT-116 65.5 µM | HOP-62 > 100 µM | LXFL 529 47.1 µM | NCI-H23 36.3 µM | OVCAR-3 91 µM | RPMI-8226 42.2 µM | RXF 393 54.3 µM | SF-295 48.1 µM | SK-MEL-28 78.5 µM | SK-MEL-2 > 100 µM | SK-MEL-5 21.1 µM | U-251 76.7 µM

C[P+]1(Cc2ccccc2)CCCC1
inactive: A549 > 100 µM | CCRF-CEM > 100 µM | COLO 205 > 100 µM | HCC 2998 71.1 µM | HCT-116 > 100 µM | HOP-62 > 100 µM | LXFL 529 > 100 µM | NCI-H23 > 100 µM | OVCAR-3 > 100 µM | RPMI-8226 > 100 µM | RXF 393 > 100 µM | SF-295 > 100 µM | SK-MEL-28 > 100 µM | SK-MEL-2 > 100 µM | SK-MEL-5 > 100 µM | U-251 > 100 µM

CC1=CCC2(C#N)CCC1C2=O (stereo not given)
inactive: A549 > 100 µM | CCRF-CEM > 100 µM | COLO 205 > 100 µM | HCT-116 > 100 µM | HOP-62 > 100 µM | LXFL 529 > 100 µM | NCI-H23 > 100 µM | OVCAR-3 > 100 µM | RPMI-8226 > 100 µM | SF-295 > 100 µM | SK-MEL-2 > 100 µM | SK-MEL-5 > 100 µM | U-251 > 100 µM

CCSc1cc(=O)n(C)c(=O)n1C
inactive: A549 > 100 µM | BT-549 > 100 µM | CCRF-CEM > 100 µM | COLO 205 > 100 µM | HCC 2998 > 100 µM | HCT-116 > 100 µM | HOP-62 > 100 µM | HOP-92 > 100 µM | MCF7 > 100 µM | NCI-H23 > 100 µM | NCI/ADR-RES > 100 µM | OVCAR-3 > 100 µM | RPMI-8226 > 100 µM | RXF 393 > 100 µM | SF-295 > 100 µM | SK-MEL-28 > 100 µM | SK-MEL-2 > 100 µM | SK-MEL-5 > 100 µM | U-251 > 100 µM
